Measured values reported in US20060258578A1, “Pharmaceutical composition” (The University of Zurich, priority 2005, published 2006).
“Also recorded” adds a separate entry of the source.

Legend:
MC3T3-E1 cells [1] = experiment: maturation of preosteoblastic cells determined by alkaline phosphatase activity; type: cell-based; conditions: for effect on maturation of MC3T3-E1 cells (alkaline phosphatase activity), solvent comparison: increasing amounts of solvent, triacetin 0,1 to 6 mM (FIG. 3)
Method: (§1) MC3T3-E1 cells were grown in an alpha-modified Minimum Essential Medium (Life Technologies, Inc., Grand Island, N.Y.) containing 10% fetal calf serum (Life Technologies, Inc.), 50 μg/ml gentamycin, and 50 μg/ml ascorbic acid. C3H10T1/2 cells were grown in basal medium Eagle, and 50 μg/ml gentamycin. To examine the action of triacetin on both cell lines, 1×10^5 cells per well were plated in 6-well plates and triacetin subsequently added. Medium exchange was performed after 3 days and alkaline phosphatase (ALP) was determined according to Lowry, O. et al. [J. Biol. Chem. 207 (1954) 19-37]: p-nitrophenol liberated was converted to p-nitrophenylate by adding 400 μl of 1 M NaOH, which was quantitated by measuring the absorbance at 410 nm (epsilon=17500/mol×cm). Alkaline phosphatase activity was normalized to total protein and expressed as nmol nitrophenylate generated per min per mg protein.
First, to verify the osteoinductive activity of triacetin an embryonic, murine, mesenchymal stem cell line C3H10T1/2 and a preosteoblastic cell line MC3T3-E1 were used and cultured as described above. C3H10T1/2 cells can differentiate into cartilage, bone or adipose cells, whereas MC3T3-E1 produces and releases autologous BMP. Alkaline phosphatase activity was used as a marker for the differentiation into the osteoblastic lineage.
Additionally, the effect of various plasticizers/solvents regarding their osteogenetic effect was compared to that of triacetin. MC3T3-E1 cells were grown as described above and treated with increasing amounts of different solvents and the effect on the maturation of MC3T3-E1 cells determined after 6 days by alkaline phosphatase activity.
To determine the effect of external BMP, C3H10T1/2 cells and MC3T3-E1 cells were plated at day one in 4 ml medium and ALP determination performed on day 6. On day 1 rhBMP was added to the cells from a stock solution of 2 mg/ml rhBMP-2 in 1 mM HCl to a concentration of 1 μg/ml. triacetin to a final concentration of 2 and 4 mM was added to the cells at the same time point from a stock solution of 200 mM triacetin in respective medium. After application triacetin and rhBMP was mixed by gently swirling the entire 6 well plate. In a separate experiment, the cells were treated with triacetin only.
In a similar manner, the effect of external rhBMP-4 on the maturation of MC3T3-E1 cells was determined by alkaline phosphatase activity. MC3T3-E1 cells were treated with triacetin in the presence or absence of 60 ng rhBMP-4/ml of the medium.
MC3T3-E1 cells were treated with triacetin in the presence or absence of 60 ng rhBMP-7/ml of the medium.

MC3T3-E1 cells [2] = experiment: mineralization visualized by Alizarin red-S staining; type: cell-based; conditions: MC3T3-E1, 4 weeks, 5 mM glycerol phosphate, 2.0 and 4.0 mM triacetin
Method: FIG. 2A: MC3T3-E1 cells treated with increasing amounts of triacetin and the maturation determined after 6 days by alkaline phosphatase activity. FIG. 2B: Mineralization by MC3T3-E1 cells seeded on a 6-well plate visualized by Alizarin S-staining. The MC3T3-E1 cells were cultured for 4 weeks in the presence of 5 mM glycerol phosphate. From the left: no triacetin was added, 2.0 mM triacetin was added, 4.0 mM triacetin.
Mineralization was determined in MC3T3-E1 cells grown in the same medium supplemented with 5 mM glycerol phosphate and 1 μg/ml rhBMP-2 or 60 ng/ml of rhBMP-4 of rhBMP-7. Alizarin red-S staining was performed after 4 weeks according to Bodine, P. V. N., et al. [J. Bone Mineral Res. 11 (1996) 806-819].

C3H10T1/2 cells = experiment: differentiation of mesenchymal stem cells towards osteoblastic lineage determined by alkaline phosphatase activity; type: cell-based, murine
Method: as §1
First, to verify the osteoinductive activity of triacetin an embryonic, murine, mesenchymal stem cell line C3H10T1/2 and a preosteoblastic cell line MC3T3-E1 were used and cultured as described above. C3H10T1/2 cells can differentiate into cartilage, bone or adipose cells, whereas MC3T3-E1 produces and releases autologous BMP. […]
The differentiation of the mesenchymal cell like cell line (C3H10T1/2) towards an osteoblastic lineage was determined by alkaline phosphatase activity. […]

## C[S+](C)[O-] [dimethylsulfoxide, reference compound]
MC3T3-E1 cells [1]; after 6 days
  effect on maturation of MC3T3-E1 cells (alkaline phosphatase activity), solvent comparison: no positive effect

## CO [methanol, reference compound]
MC3T3-E1 cells [1]; after 6 days
  effect on maturation of MC3T3-E1 cells (alkaline phosphatase activity), solvent comparison: no positive effect

## CC(=O)OCC(COC(C)=O)OC(C)=O [triacetin, glyceryl triacetate]
MC3T3-E1 cells [1]; MC3T3-E1, 0,0 to 4 mM triacetin, after 6 days
  increase of alkaline phosphatase activity: 2.0-7.0 factor
MC3T3-E1 cells [1]; MC3T3-E1, triacetin with 60 ng rhBMP4/ml (FIG. 5)
  synergistic effect with rhBMP4 on maturation (alkaline phosphatase activity): synergistic effect
MC3T3-E1 cells [1]; MC3T3-E1, triacetin with 60 ng rhBMP-7/ml (FIG. 6)
  synergistic effect with rhBMP-7 on maturation (alkaline phosphatase activity): synergistic bone forming effect
MC3T3-E1 cells [1]; MC3T3-E1, triacetin with 1 μg rhBMP-2/ml (FIG. 4)
  synergistic effect with rhBMP-2 on maturation (alkaline phosphatase activity): synergistic effect
MC3T3-E1 cells [1]; after 6 days
  effect on maturation of MC3T3-E1 cells (alkaline phosphatase activity), solvent comparison: increases in a concentration dependent manner
MC3T3-E1 cells [2]
  mineralisation by alizarin-S-staining: increased mineralisation
C3H10T1/2 cells; C3H10T1/2, 2 mM and 4 mM, absence of rhBMP
  alkaline phosphatase activity, triacetin alone: increase in alkaline phosphatase activity; also recorded: able to induce alkaline phosphatase activity
C3H10T1/2 cells; C3H10T1/2, triacetin 2 and 4 mM with 1 μg rhBMP-2/ml, day 6
  synergistic effect with rhBMP-2 on alkaline phosphatase activity: further enhanced; also recorded: works synergistically

## CCO [ethanol, reference compound]
MC3T3-E1 cells [1]; after 6 days
  effect on maturation of MC3T3-E1 cells (alkaline phosphatase activity), solvent comparison: no positive effect

## CN(C)C=O [N,N-dimethylformamide, reference compound]
MC3T3-E1 cells [1]; after 6 days
  effect on maturation of MC3T3-E1 cells (alkaline phosphatase activity), solvent comparison: no positive effect
